In patent US4486586A, “Cephalosporin derivatives” (Bristol-Myers Company, priority 1983, dated 1984):
In brackets after ≈: the same amount, converted by molar mass.

Assays:
[1] = test system: Penicillinsensitive S. aureus; assay: MIC, two-fold serial agar dilution in Mueller-Hinton agar, group (G+)-Ia; format: cell-based; settings: Staphylococcus aureus, penicillin-sensitive S. aureus, 5 strains, read-out: Geometric Mean of MIC, (G+)-Ia
Description: (§1) In the primary evaluation of the compounds of this invention, the Minimum Inhibitory Concentrations (MIC's) of the compounds were determined by the two-fold serial agar dilution method in Mueller-Hinton agar against 32 strains of test organisms in six groups.

[2] = test system: Penicillinresistant S. aureus; assay: MIC, two-fold serial agar dilution in Mueller-Hinton agar, group (G+)-Ib; format: cell-based; settings: Staphylococcus aureus, penicillin-resistant S. aureus, 5 strains, read-out: Geometric Mean of MIC, (G+)-Ib
Description: as §1
(G+)Ib: Penicillinresistant S. aureus (5

[3] = test system: Cephalothinsensitive E. coli, Kl. pneumoniae and Pr. mirabilis; assay: MIC, two-fold serial agar dilution in Mueller-Hinton agar, group (G-)-Ia; format: cell-based; settings: cephalothin-sensitive E. coli, 5 strains, read-out: Geometric Mean of MIC, (G-)-Ia
Description: as §1
(G-)Ia: Cephalothinsensitive E. coli (2 strains), Kl. pneumoniae (1
strain) and Pr. mirabilis (2 strains)

[4] = test system: Cephalothinresistant E. coli and Kl. pneumoniae; assay: MIC, two-fold serial agar dilution in Mueller-Hinton agar, group (G-)-Ib; format: cell-based, E. coli (3 strains) and Kl. pneumoniae (3 strains); settings: read-out: Geometric Mean of MIC, (G-)-Ib
Description: as §1
(G-)Ib: Cephalothinresistant E. coli (3 strains) and Kl. pneumoniae (3

[5] = test system: M. morganii, Ent. cloacae and Ser. marcescens; assay: MIC, two-fold serial agar dilution in Mueller-Hinton agar, group (G-)-II; format: cell-based; settings: 5 strains, read-out: Geometric Mean of MIC, (G-)-II
Description: as §1
(G-)II: M. morganii (1 strain), Ent. cloacae (2 strains) andSer.

Ps. aeruginosa = assay: MIC, two-fold serial agar dilution in Mueller-Hinton agar, group (G-)-III; format: cell-based; settings: Pseudomonas aeruginosa, 7 strains, read-out: Geometric Mean of MIC, (G-)-III
Description: as §1
(G-)III: Ps. aeruginosa (7 strains)

CO/N=C(\C(=O)NC1C(=O)N2C(C(=O)[O-])=C(/C=C/C[n+]3ccsc3SC)CS[C@H]12)c1csc(N)n1 (stereo partly drawn) [Compound I-1G, 7-[(Z)-2-(2-Aminothiazol-4yl)-2-methoxyiminoacetamido]-3-[(E)-3-(2-methylthio-3-thiazolio)-1-propen-1-yl]-3-cephem-4-carboxylate]
MIC [1]: 0.15 µg/mL (≈ 0.271 µM) | MIC [2]: 0.39 µg/mL (≈ 0.706 µM) | MIC [3]: 0.014 µg/mL (≈ 0.0253 µM) | MIC [4]: 0.074 µg/mL (≈ 0.134 µM) | MIC [5]: 0.085 µg/mL (≈ 0.154 µM) | MIC (Ps. aeruginosa): 7.6 µg/mL (≈ 13.8 µM)
